Values quoted from earlier work in patent US20220211847A1, “COMBINATION OF MONALIZUMAB, DURVALUMAB, CHEMOTHERAPY AND BEVACIZUMAB OR CETUXIMAB FOR THE TREATMENT OF COLORECTAL CANCER” (MEDIMMUNE LIMITED, priority 2019, published 2022).
Like-named read-outs stand apart in the source and are kept apart here.

Legend:
[1] = tested on: CRC; details: similar population
[2] = tested on: MSI high CRCs and MSS CRCs
[3] = tested on: unresectable metastatic disease (mCRC); details: added to oxaliplatin-based regimens
[4] = tested on: microsatellite instability-high CRC or mismatch repair deficient CRC; details: monotherapy; MSI-high or mismatch repair deficient CRC

CNC(=O)c1cc(Oc2ccc(NC(=O)Nc3ccc(Cl)c(C(F)(F)F)c3)c(F)c2)ccn1 [regorafenib]
median OS [1]: 6.4 months

pembrolizumab: humanized monoclonal IgG4 antibody directed against human cell surface receptor PD-1
objective response rate (ORR) ([2]; 10 mg/kg Q2W, microsatellite proficient CRC): 0%
immune-related objective response rate ([2]; MSI high CRCs): 40%
immune-related progression free survival rate ([2]; MSI high CRCs): 78%
patients who experienced disease progression ([2]; MSI-H CRC): 1 of 10
patients who experienced disease progression ([2]; MSS CRC): 11/18
immune-related objective response rate ([2]; MSS CRCs): 0%
immune-related progression free survival rate ([2]; MSS CRCs): 11%

bevacizumab: recombinant humanized monoclonal antibody directed against human vascular endothelial growth factor (VEGF)
increase in Progression-free survival (PFS) compared with regimens without bevacizumab [3]: 1.4 months
difference in Overall Survival (OS) ([3]; not statistically significant): 1.4 months

nivolumab
ORR [4]: 28%
